Measured values taken from US20170368018A1, “USE OF ELLAGIC ACID DIHYDRATE IN PHARMACEUTICAL FORMULATIONS TO REGULATE BLOOD GLUCOSE LEVELS” (HALO LIFE SCIENCE, LLC, priority 2014, published 2017).

Experiments:
MEF cells [1] = test: Glucose uptake, 2-NBDG labeling, high-content imaging (Operetta), MEFs; assay type: cell-based, mouse
Experimental: (§1) Increased glucose uptake was indicated as increasing signal of 2-NBDG ([…]) in cells. Glucose uptake assays were carried out in a final incubation volume of 50 μl consisting of, 2-NBDG), (100 μM) in 1× Phosphate Buffered Saline w/Ca+, Mg+ (PBS++). The same buffer was used for washing cells. Insulin was used as a positive control. All testing compounds were prepared in 10% DMSO and diluted 1:100 for a final concentration of 0.1% DMSO (vehicle). Cells were culture to 70-90% confluence and then washed twice with PBS++. Cells were incubated for 30 minutes at 37° C. in PBS++. Nuclear stain, HCS CellMask stain (blue, Invitrogen), and/or testing compounds (ellagic acid dihydrate, insulin, or vehicle) were added. Cells were incubated for 30 min at 37° C. Cells were washed twice with PBS++and incubated with 2-NBDG for 10 minutes. Cells were washed thrice with PBS++and then imaged in PBS++. Alternatively, the final PBS wash was removed and cells were incubated with Accutase (Invitrogen) for 10 min at 37° C., neutralized with 10% FBS in 1× PBS, and analyzed by flow cytometry. An additional experiment was performed to measure glucose uptake in C2C12 cells exposed to metformin, insulin and ellagic acid dihydrate 2 (batch 2). FIG. 5C. Glucose uptake in ellagic acid dihydrate treated cell culture was measured and compared to glucose uptake under insulin or ellagic acid treatment. […] Flow cytometry results were run in triplicate with 1000 cells per batch.

MEF cells [2] = test: Glucose uptake, 2-NBDG labeling, flow cytometry, MEFs; assay type: cell-based, mouse
Experimental: as §1, with “Cellular assays were performed using mouse myoblast C2C12 cells and MEF cells. […] Increased” for “Increased”

female SWV mice = test: Weight loss and blood glucose in mice, thirty days daily gavage; assay type: in vivo, mouse; settings: for body weight lost on average: supplemental pill, gavage daily
Experimental: Weight loss and blood glucose in mice treated with ellagic acid was determined and weight loss and blood glucose in mice treated with ellagic acid dihydrate may be determined by the following procedure. Mice are treated daily for thirty days with ellagic acid or control in the form of a supplemental pill homogenized and suspended in 25% water solution of Cremophor EL. The mice are treated via gavage using the human equivalent dose (LD) of 122.4 mg pill/kg of subject (40.6 mg ellagic acid/kg of the subject), 10× higher dose (HD) of 1224 mg pill/kg of the subject (406 mg ellagic acid/kg of the subject), or control vehicle (25% water solution of Cremophor EL). The LD and HD dose amounts are calculated based on the following assumptions: a human dose is one 603 mg (200 mg ellagic acid) pill/day, taken orally; the average weight of a person is 60 kg, thus, the average dose for a human equals approximately 9.95 mg of the pill (3.3 mg ellagic acid)/kg daily; a mouse equivalent dose requires 12.3 times the human dose per kg. The mice are weighed and treated daily, and blood glucose level are measured every two days for a total one month period.

[3] = system: female SWV mice with STZ induced diabetes; test: Weight loss and blood glucose in mice with STZ induced diabetes; assay type: in vivo, mouse; settings: STZ diabetic mice, thirty days
Experimental: Weight loss and blood glucose in diabetes induced mice treated with ellagic acid was determined and weight loss and blood glucose in mice treated with ellagic acid dihydrate may be determined by the following procedures. Induction of Diabetes: Diabetes is induced in mice by intraperitoneal injection with Streptozotocin (STZ 40 mg/kg) daily for five days. The mice are considered hyperglycemic when the glucose level of each dam is above 200 mg/dL. The mice are fasted for 4 hours before STZ injection and glucose measurement. Treatment: The mice are treated daily for thirty days with ellagic acid or control in the form of a supplemental pill homogenized and suspended in 25% water solution of Cremophor EL. The mice are treated for one month via gavage using the human equivalent dose of 122.4 mg pill/kg of subject (40.6 mg ellagic acid/kg of the subject), the human equivalent does of 40.6 mg ellagic acid/kg of the subject using 98% pure ellagic acid, or control vehicle (25% water solution of Cremophor EL). The human equivalent dose is calculated as described in Example 8. Treatments would start two weeks after the last STZ injection in which hyperglycemia is confirmed in the diabetic mice. The mice would be weighed daily and glucose levels would be measured in fasted animals every five days.

mice = test: Activity level in mice; assay type: in vivo, mouse; settings: observation by the Applicant in treated mice
From the text: Activity levels in mice treated with ellagic acid dihydrate may be quantified by several procedures, such as those outlined in Turri, M. et al.; QTL Analysis Identifies Multiple Behavioral Dimensions in Ethological Tests of Anxiety in Laboratory Mice; Current Biology; 2001; 11(10): 725-734. Two examples of procedures taught therein follows. Gross Locomotor Activity in Home Cage: Mice are caged singly several days prior to home cage activity monitoring and subsequent testing. Activity in home cages are measured during the first 2 hours of the dark cycle on two consecutive days. Two infrared photo emitter-detector pairs, located outside the clear plastic home cage that divide the cage into three equal areas, are used to record gross locomotor activity on the floor of the home cage as the animal breaks the photo beams. The beam-break activity score consists of the square root of the number of beam breaks for each detector summed across the two test days. Magnitude of Activity in Home Cage: Mice are caged singly several days prior to home cage activity monitoring and subsequent testing. Activity in home cages are measured during the first 2 hours of the dark cycle on two consecutive days. An infrared motion detector located above the top of the home cage is employed to converts all motion sensed within the home cage into arbitrary units, based on the magnitude of activity detected.

[4] = system: AKT / Phos AKT in C2C12 cells; test: AKT:phos AKT ratio by immunocytochemistry, high-content imaging; assay type: cell-based, mouse; settings: C2C12, serum starved 1 hr, treated 30 minutes, 4 nM-4 μM, FIG. 8
Experimental: Stimulation of AKT pathways and MAPK pathways in ellagic acid dihydrate, metformin, and insulin treated cell cultures was performed. Insulin stimulates glucose uptake into cells by increasing GLUT4 activation, and AKT, specifically phos-AKT, signaling alters GLUT4 translocation. […] Cellular assays were performed using mouse myoblast C2C12 cells. […] Serum starved cells (1 hr) were treated for 30 minutes with each of the tested compounds.

[5] = system: p44/42 MAPK / Phos p44/42 MAPK in C2C12 cells; test: p44/42 MAPK:phos p44/42 MAPK ratio by immunocytochemistry, high-content imaging; assay type: cell-based, mouse; settings: C2C12, treated 30 minutes, 0.04 nM, FIG. 9
Experimental: Stimulation of AKT pathways and MAPK pathways in ellagic acid dihydrate, metformin, and insulin treated cell cultures was performed. Insulin stimulates glucose uptake into cells by increasing GLUT4 activation, and AKT, specifically phos-AKT, signaling alters GLUT4 translocation. […] Cellular assays were performed using mouse myoblast C2C12 cells. Relative protein levels of AKT:phos AKT and p44/42 MAPK:phos p44/42 MAPK were determined.
Serum starved cells (1 hr) were treated for 30 minutes with each of the tested compounds. Ratios of phosphorylated to non-phosphorylated proteins were determined using immunocytochemistry labeling (anti-AKT, anti-Phos AKT; or anti-p44/42 MAPK, anti-Phos p44/42 MAPK) on a high-content imaging system (Operetta, Perkin Elmer) using the fluorescent signal of anti-rabbit Alexa 647. Increased phosphorylation is indicated as decrease in signal of AKT:Phos AKT ratio (log2 scale) and p44/42 MAPK:Phos p44/42 MAPK ratio (log2 scale) relative to vehicle treated cells.

[6] = system: GLUT4-GFP in mouse myoblast C2C12 cells; test: Localization of glucose transporter GLUT4-GFP, time-lapse confocal microscopy; assay type: cell-based; settings: C2C12, 4000 nM
Experimental: Induction of glucose transporter, GLUT-4, in ellagic acid dihydrate treated cell cultures was studied. Cellular assays were performed using mouse myoblast C2C12 cells. The cells were infected with a fusion glucose transporter 4 green fluorescent protein (GLUT4-GFP). This protein allows the visualization of GLUT4 by imaging the GFP under fluorescent time-lapse microscopy. Frames were compiled to produce time-lapse images of cellular changes with no treatment or treatment with insulin. The localization of glucose transporter (GLUT4-GFP) was performed in final incubation volume of 505 μL, consisting of 500 μL of Hank's Buffer (Invitrogen) and 5 μl of tested compounds. Insulin was used as positive controls and vehicle (0.1% DMSO) as the negative control. All test compounds were prepared in 10% DMSO and diluted 1:100 for a final concentration of 0.1% DMSO (vehicle). The cells were rinsed in Hank's Buffer thrice and then incubated in Hank's Buffer at 37° C. for one hour. The test compounds were added (ellagic acid dihydrate, insulin, or vehicle) and the cells were imaged using laser-confocal microscopy (Leica TCS SP5 X) with FITC fluorescent filters to determine changes in GLUT4-GFP localization. Time-lapse images (TIF) were collected and post-processed using Image-J (NIH) for video construction.

[7] = system: mouse myoblast C2C12 cells; test: Glucose uptake, 2-NBDG labeling, flow cytometry, C2C12; assay type: cell-based
Experimental: Cellular assays were performed using mouse myoblast C2C12 cells and MEF cells. […] Increased glucose uptake was indicated as increasing signal of 2-NBDG ([…]) in cells. Glucose uptake assays were carried out in a final incubation volume of 50 μl consisting of, 2-NBDG), (100 μM) in 1× Phosphate Buffered Saline w/Ca+, Mg+ (PBS++). The same buffer was used for washing cells. Insulin was used as a positive control. All testing compounds were prepared in 10% DMSO and diluted 1:100 for a final concentration of 0.1% DMSO (vehicle). Cells were culture to 70-90% confluence and then washed twice with PBS++. Cells were incubated for 30 minutes at 37° C. in PBS++. Nuclear stain, HCS CellMask stain (blue, Invitrogen), and/or testing compounds (ellagic acid dihydrate, insulin, or vehicle) were added. Cells were incubated for 30 min at 37° C. Cells were washed twice with PBS++and incubated with 2-NBDG for 10 minutes. Cells were washed thrice with PBS++and then imaged in PBS++. Alternatively, the final PBS wash was removed and cells were incubated with Accutase (Invitrogen) for 10 min at 37° C., neutralized with 10% FBS in 1× PBS, and analyzed by flow cytometry. An additional experiment was performed to measure glucose uptake in C2C12 cells exposed to metformin, insulin and ellagic acid dihydrate 2 (batch 2). FIG. 5C.

| Compound | dose effect for increasing glucose uptake (MEF cells [1]) | glucose uptake per unit dose (MEF cells [2]; in vitro conditions, summary statement) | blood glucose (female SWV mice; all treatments (LD, HD) compared to control) | body weight lost on average (female SWV mice; 10× higher dose (HD, 406 mg ellagic acid/kg)) | body weight lost on average (female SWV mice; human equivalent dose (LD, 40.6 mg ellagic acid/kg)) | body weight lost on average ([3]; human equivalent dose, daily) | mean glucose level values, treated versus control mice [3] | activity levels (mice) | AKT:Phos AKT ratio (log2 scale) relative to vehicle treated cells [4] | p44/42 MAPK:Phos p44/42 MAPK ratio relative to vehicle treated cells [5] | GLUT4-GFP around the cell nucleus [6] | ruffling of filopodia at the surface of the cell [6] | glucose uptake (signal of 2-NBDG) in comparison to vehicle (MEF cells [1]) | increased glucose uptake relative to vehicle treated cells (MEF cells [2]; 400 nM exposure, fibroblasts, FIG. 4B) [%] | dose effect for increasing glucose uptake (MEF cells [2]; MEFs, flow cytometry, 4 μM-0.04 nM) | glucose uptake (2-NBDG signal) relative to vehicle (MEF cells [2]; MEFs, flow cytometry, FIG. 4A) | p44/42 MAPK:Phos p44/42 MAPK ratio relative to vehicle treated cells ([5]; 400 nM) | increase in glucose uptake in myoblasts relative to fibroblasts ([7]; C2C12 (FIGS. 5A, 5B) versus MEFs (FIGS. 4A, 4B)) [×] | dose effect for increasing glucose uptake ([7]; C2C12, flow cytometry, 4 μM-0.04 nM) | glucose uptake (2-NBDG signal) relative to vehicle ([7]; C2C12, flow cytometry, FIG. 5A) |
| --- | --- | --- | --- | --- | --- | --- | --- | --- | --- | --- | --- | --- | --- | --- | --- | --- | --- | --- | --- | --- |
| O=c1oc2c(O)c(O)cc3c(=O)oc4c(O)c(O)cc1c4c23 [ellagic acid] | no such dose effect | little to no glucose uptake per unit dose | Normal levels of blood glucose | 10.4 % of body weight | 8.9 % of body weight | 11.7 % of body weight | no significant differences | increased activity levels |  |  |  |  |  |  |  |  |  |  |  |  |
| CN(C)C(=N)N=C(N)N [metformin] |  |  |  |  |  |  |  |  | increase in AKT relative to phosphorylation of AKT | increased the ratio of p44/42 MAPK |  |  |  |  |  |  |  |  |  |  |
| insulin: Insulin was used as a positive control [reference compound] | showed a dose effect |  |  |  |  |  |  |  | −0.5 |  | decrease in GLUT4-GFP around the cell nucleus | rapid production of numerous projections | showed an increase in glucose uptake | 32 | showed a dose effect | significant increase | increase in p44/42 MAPK | ~4 | showed a dose effect | significant increase |
